Results reported in US10676429B2, “Sulfamoyl-arylamides and the use thereof as medicaments for the treatment of hepatitis B” (priority 2012, dated 2020).

Tests used:
[1] = test system: HBV; test: Anti-HBV activity in stable transfected HepG2.2.15 cell line (HBV DNA from secreted virions, realtime PCR); assay type: cell-based
[2] = test system: HBV; test: Anti-HBV activity in HepG2.117 cell line (Tet-off, intracellular HBV DNA, realtime PCR); assay type: cell-based
[3] = Cytotoxicity in HepG2 cells, 4 days, Resazurin assay; conditions: human
[4] = Hepatitis B virus, HepG2.2.15, 144 h, HepG2.2.15 cells, 6 days of treatment, secreted virion HBV DNA, read-out: HepG2 2.15 EC50
[5] = Hepatitis B virus, HepG2.117, 72 h, HepG2.117 cells, 3 days of treatment, intracellular HBV DNA, read-out: HepG2 117 EC50

Row | Compound | EC50 [1, 4] [µM] | EC50 [2, 5] [µM] | CC50 at 4 days ([3]; HepG2 cells) [nM] | EC50 ([1]; Hepatitis B virus, HepG2.2.15, 144 h, read-out: HepG2 2.15 EC50 (μM)) [µM] | EC50 ([2]; Hepatitis B virus, HepG2.117, 72 h, read-out: HepG2 117 EC50 (μM)) [µM] | CC50 at 4 days [3] [nM] | EC50 ([1]; HepG2.2.15 cells, 6 days of treatment, secreted virion HBV DNA, read-out: HepG2 2.15 EC50) [µM] | EC50 ([2]; HepG2.117 cells, 3 days of treatment, intracellular HBV DNA, read-out: HepG2 117 EC50) [µM]
1 | Cc1[nH]c(C(=O)Nc2ccccc2)c(C)c1S(=O)(=O)N1CCCCC1 [Compound 62] | 7.06 | 10.1 | > 50000 |  |  |  |  | 
2 | Cc1cc(NC(=O)c2cc(S(=O)(=O)N[C@H]3CCOC3)ccc2C)ccc1F [Compound 121] | 0.16 | 0.13 | > 25000 |  |  |  |  | 
3 | Cc1cc(NC(=O)c2cc(S(=O)(=O)NC(C)C)oc2C)ccc1F [Compound 230] | 0.73 | 1.52 | > 25000 |  |  |  |  | 
4 | Cc1cc(NC(=O)c2cccc(S(=O)(=O)NC3CC4CCC3O4)c2)ccc1F (stereo not drawn) [Compound 128] | 0.23 | 0.54 | > 25000 |  |  |  |  | 
5 | Cc1cc(NC(=O)c2cccc(S(=O)(=O)N[C@@H]3CCC[C@@H]3O)c2)ccc1F [Compound 172] | 0.26 | 0.61 | > 25000 |  |  |  |  | 
6 | Cc1cc(NC(=O)c2ccc(F)c(S(=O)(=O)N[C@H]3CCOC3)c2)ccc1F [Compound 239] | 0.48 | 0.53 | > 25000 |  |  |  |  | 
7 | Cc1cc(NC(=O)c2cccc(S(=O)(=O)N[C@H]3CC[C@H](O)CC3)c2)ccc1F [Compound 133] | 0.6 | 1.69 | > 25000 |  |  |  |  | 
8 | Cc1cc(NC(=O)c2cccc(S(=O)(=O)N[C@@H]3CCc4ccccc4[C@H]3O)c2)ccc1F [Compound 178] | 0.75 | 2.54 | > 25000 |  |  |  |  | 
9 | Cc1cc(NC(=O)c2cccc(S(=O)(=O)N3CC4(CCOC4)C3)c2)ccc1F [Compound 146] | 0.45 | 0.42 | > 25000 |  |  |  |  | 
10 | Cc1cc(NC(=O)c2cccc(S(=O)(=O)N[C@@H](C)C3CC3)c2)ccc1F [Compound 174] | 0.47 | 2.84 | > 25000 |  |  |  |  | 
11 | O=C(Nc1cccc(C(F)(F)F)c1)c1cc(S(=O)(=O)NC2CCCCC2)ccc1F [Compound 7] | 0.66 | 0.56 | 11400 |  |  |  |  | 
12 | Cc1cc(NC(=O)c2cccc(S(=O)(=O)N[C@H]3CCOC3)c2C)ccc1F [Compound 126] | 1.38 | 0.89 | > 25000 |  |  |  |  | 
13 | O=C(Nc1ccc(F)cc1)c1cc(S(=O)(=O)N2CCCCC2)cs1 [Compound 61] |  |  |  | 7.07 | 15.4 | 35700 |  | 
14 | CC1(NS(=O)(=O)c2cccc(C(=O)Nc3ccc(F)c(Br)c3)c2)COC1 [Compound 160, N-(3-bromo-4-fluoro-phenyl)-3-[(3-methyloxetan-3-yl)sulfamoyl]benzamide] | 0.2 | 0.69 | > 25000 |  |  |  |  | 
15 | Cc1cc(F)cc(NC(=O)c2cccc(S(=O)(=O)NC3CCCC3)c2)c1 [Compound 12] | 0.11 | 1.51 | 13300 |  |  |  |  | 
16 | N#Cc1cccc(NC(=O)c2cccc(S(=O)(=O)NC3CCCC3)c2)c1 [Compound 75] | 0.39 | 0.82 | > 25000 |  |  |  |  | 
17 | Cc1ccc(S(=O)(=O)NC2(C)COC2)cc1C(=O)Nc1ccc(F)c(C(F)(F)F)c1 [Compound 238] | 0.61 | 0.5 | > 25000 |  |  |  |  | 
18 | Cc1cc(NC(=O)c2cccc(S(=O)(=O)NC3CN(C(=O)OC(C)(C)C)C3)c2)ccc1F [Compound 182] | 0.31 | 0.88 | > 25000 |  |  |  |  | 
19 | O=C(Nc1ccc(F)c(F)c1)c1cc(S(=O)(=O)N[C@H]2CCOC2)ccc1F [Compound 101] | 0.43 | 1.51 | > 25000 |  |  |  |  | 
20 | Cc1cc(NC(=O)c2cccc(S(=O)(=O)N3CCC34COC4)c2)ccc1F [Compound 147] | 0.26 | 0.15 | > 25000 |  |  |  |  | 
21 | Cc1cccc(NC(=O)c2cc(S(=O)(=O)N3CCCCC3)c(Cl)cc2Cl)c1 [Compound 17] | 0.56 | 2.65 | > 100000 |  |  |  |  | 
22 | CC1(NS(=O)(=O)c2cccc(C(=O)Nc3ccc(F)c(C(F)F)c3)c2F)COC1 [Compound 218] | 0.12 | 0.1 | > 25000 |  |  |  |  | 
23 | COC(=O)N1CCC(NS(=O)(=O)c2cccc(C(=O)Nc3ccc(F)c(C)c3)c2)C1 (stereo not drawn) [Compound 158] | 0.15 | 0.5 | > 25000 |  |  |  |  | 
24 | O=C(Nc1ccc(F)c(F)c1)c1c(F)ccc(S(=O)(=O)N[C@H]2CCOC2)c1F [Compound 196] | 0.13 | 0.07 | > 25000 |  |  |  |  | 
25 | CC(C)NS(=O)(=O)c1cccc(C(=O)Nc2ccc(F)c(C(F)(F)F)c2)c1 [Compound 74] | 0.64 | 0.53 | > 25000 |  |  |  |  | 
26 | O=C(Nc1ccccc1)c1cccc(S(=O)(=O)NC2CCCCC2)n1 [Compound 65] | 10.8 | > 25 | 35300 |  |  |  |  | 

Row | Compound | EC50 [1, 4] [µM] | EC50 [2, 5] [µM] | CC50 at 4 days ([3]; HepG2 cells) [nM] | EC50 ([1]; Hepatitis B virus, HepG2.2.15, 144 h, read-out: HepG2 2.15 EC50 (μM)) [µM] | EC50 ([2]; Hepatitis B virus, HepG2.117, 72 h, read-out: HepG2 117 EC50 (μM)) [µM] | CC50 at 4 days [3] [nM] | EC50 ([1]; HepG2.2.15 cells, 6 days of treatment, secreted virion HBV DNA, read-out: HepG2 2.15 EC50) [µM] | EC50 ([2]; HepG2.117 cells, 3 days of treatment, intracellular HBV DNA, read-out: HepG2 117 EC50) [µM]
27 | O=C(Nc1ccccc1)c1c[nH]c(S(=O)(=O)NC2CCCCC2)n1 [Compound 63] | 9.94 | 21.1 | > 100000 |  |  |  |  | 
28 | Cc1cc(NC(=O)c2cccc(S(=O)(=O)N[C@@H](C)c3ccccc3)c2)ccc1F [Compound 167] | 0.62 | 9.84 | > 25000 |  |  |  |  | 
29 | Cc1cc(NC(=O)c2cccc(S(=O)(=O)NCC(F)(F)F)c2)ccc1F [Compound 228] | 0.17 | 1.19 | > 25000 |  |  |  |  | 
30 | Cc1ccc(NC(=O)c2cccc(S(=O)(=O)NC3CCCC3)c2)cc1F [Compound 13] | 1.99 | 15.3 | 13800 |  |  |  |  | 
31 | Cc1cc(NC(=O)c2cccc(S(=O)(=O)NC3CCC(O)C3)c2)ccc1F (single isomer, unassigned) [Compound 145a, N-(4-fluoro-3-methyl-phenyl)-3-[[(1R,3S)-3-hydroxycyclopentyl]sulfamoyl]benzamide or N-(4-fluoro-3-methyl-phenyl)-3-[[(1S,3R)-3-hydroxycyclopentyl]sulfamoyl]benzamide] |  |  | > 25000 |  |  |  | 0.14 | 0.21
32 | Cc1cc(NC(=O)c2cccc(S(=O)(=O)NC(C)CN3CCOCC3)c2)ccc1F (stereo not drawn) [Compound 117] | 0.88 | 0.5 | > 25000 |  |  |  |  | 
33 | O=C(Nc1ccccc1)c1cc(S(=O)(=O)NC2CCCCC2)cs1 [Compound 60] | 0.85 | 0.67 | 29100 |  |  |  |  | 
34 | Cc1cc(NC(=O)c2cc(S(=O)(=O)N[C@H]3CCOC3)ccc2Br)ccc1F [Compound 237] | 0.43 | 0.13 | > 25000 |  |  |  |  | 
35 | Cc1cc(NC(=O)c2cccc(S(=O)(=O)N[C@@H](C)C3CCCCC3)c2)ccc1F [Compound 148] | 0.9 | 3.11 | 18200 |  |  |  |  | 
36 | Cc1cc(NC(=O)c2cc(S(=O)(=O)NC3(C)COC3)ccc2C)ccc1F [Compound 122] | 0.13 | 0.18 | > 25000 |  |  |  |  | 
37 | Cc1cc(NC(=O)c2cccc(S(=O)(=O)N[C@H]3CCC[C@@H]3O)c2)ccc1F [Compound 138] | 1.28 | 2.27 | > 25000 |  |  |  |  | 
38 | Cc1cc(NC(=O)c2cccc(S(=O)(=O)NC3CC(O)C3)c2)ccc1F (stereo not drawn) [Compound 184] | 0.15 | 0.4 | > 25000 |  |  |  |  | 
39 | Cc1cc(NC(=O)c2cccc(S(=O)(=O)NC3(C)COC3)c2F)ccc1F [Compound 222] | 0.05 | 0.1 | > 25000 |  |  |  |  | 
40 | O=C(Nc1ccccc1)c1cncc(S(=O)(=O)NC2CCCCC2)c1 [Compound 68] | 18.6 | > 25 | 68000 |  |  |  |  | 
41 | C=Cc1cc(NC(=O)c2cccc(S(=O)(=O)NC3(C)COC3)c2)ccc1F [Compound 110] | 0.66 | 0.85 | > 25000 |  |  |  |  | 
42 | CC1(NS(=O)(=O)c2ccc(Cl)c(C(=O)Nc3ccc(F)c(C(F)F)c3)c2)COC1 [Compound 235] | 0.83 | 0.33 | > 25000 |  |  |  |  | 
43 | Cc1cc(NC(=O)c2cccc(S(=O)(=O)N[C@@H]3c4ccccc4C[C@@H]3O)c2)ccc1F [Compound 136] | 0.47 | 0.81 | > 25000 |  |  |  |  | 
44 | Cc1cc(NC(=O)c2cccc(S(=O)(=O)NC3CCCC3)c2)ccc1F [Compound 11] | 0.1 | 0.42 | 19600 |  |  |  |  | 
45 | Cc1cc(NC(=O)c2cccc(S(=O)(=O)N3CC4(COC4)C3)c2)ccc1F [Compound 135] | 0.56 | 0.36 | > 25000 |  |  |  |  | 
46 | CCC1(NS(=O)(=O)c2cccc(C(=O)Nc3ccc(F)cc3)c2)CC1 [Compound 87] | 0.41 | 0.89 | > 25000 |  |  |  |  | 
47 | Cc1cc(NC(=O)c2cccc(S(=O)(=O)NC3CCS(=O)(=O)C3)c2)ccc1F (stereo not drawn) [Compound 140] | 1.1 | 1.12 | > 25000 |  |  |  |  | 
48 | Cc1cc(NC(=O)c2cccc(S(=O)(=O)N[C@H]3CCOC3)c2F)ccc1F [Compound 112] | 0.03 | 0.14 | > 25000 |  |  |  |  | 
49 | O=C(Nc1ccccc1)c1cc(S(=O)(=O)NC2CCCCC2)ccn1 [Compound 67] | 11.1 | 18.6 | > 100000 |  |  |  |  | 
50 | CC1(NS(=O)(=O)c2cccc(C(=O)Nc3ccc(F)c(CO)c3)c2)COC1 [Compound 111] | 4.48 | 1.48 | > 25000 |  |  |  |  | 
51 | Cc1cc(NC(=O)c2cccc(S(=O)(=O)NC(C)C)c2)ccc1F [Compound 73] | 0.073 | 0.15 | > 25000 |  |  |  |  | 
52 | Cc1cc(NC(=O)c2cccc(S(=O)(=O)NC3CCC(F)(F)C3)c2)ccc1F (stereo not drawn) [Compound 229] | 0.2 | 0.49 | > 25000 |  |  |  |  | 
